Test results published in patent US20160375006A1, “USES OF PARALOG-SELECTIVE INHIBITORS OF GSK3 KINASES” (priority 2012, published 2016).

Experiments:
[1] = biological target: MAP2K3_Cascade (Homo sapiens, UniProt P46734)
Method: (§1) This was completed utilizing one of two assays depending on the kinase being examined.
(§2) A solution of IMAP binding reagent (IMAP Screening Express kit; Molecular Devices) (60 μL) was added to each well and incubated for 30 minutes.
(§3) A solution of termination buffer (QuickScout Screening assist MSA; Carna Biosciences) (60 μL) was added to each well. The entire reaction mixture was then applied to a LabChip3000 system (Caliper Life Science) and the product and substrate peptide peaks were separated and quantified.
(§4) The assay utilized was identical to that of the single point inhibitory activity determination (MSA) but run in dose response. […] A solution of termination buffer (QuickScout Screening assist MSA; Carna Biosciences) (60 μL) was added to each well. The entire reaction mixture was then applied to a LabChip3000 system (Caliper Life Science) and the product and substrate peptide peaks were separated and quantified.

[2] = biological target: ALK(R1275Q) (Homo sapiens, UniProt Q9UM73, R1275Q)
Method: as §1, §2, §3, §4

[3] = biological target: CK1γ3 (Homo sapiens, UniProt Q9Y6M4)
Method: as §1, §2, §3, §4

[4] = biological target: SLK (Homo sapiens, UniProt Q9H2G2)
Method: as §1, §2, §3, §4

[5] = biological target: TIE2 (Homo sapiens, UniProt Q02763)
Method: as §1, §2, §3, §4

[6] = biological target: PKACα (Homo sapiens, UniProt P17612)
Method: as §1, §2, §3, §4

[7] = biological target: PAK2 (Homo sapiens, UniProt Q13177)
Method: as §1, §2, §3, §4

[8] = biological target: NEK6 (Homo sapiens, UniProt Q9HC98)
Method: as §1, §2, §3

[9] = biological target: FGFR1 (Homo sapiens, UniProt P11362)
Method: as §1, §2, §3, §4

[10] = biological target: EGFR(T790M) (Homo sapiens, UniProt P00533, T790M)
Method: as §1, §2, §3, §4

[11] = biological target: EPHA1 (Homo sapiens, UniProt P21709)
Method: as §2, §3, §4

[12] = biological target: p38δ (Homo sapiens, UniProt O15264)
Method: as §1, §2, §3, §4

[13] = biological target: NEK1 (Homo sapiens, UniProt Q96PY6)
Method: as §1, §2, §3

[14] = biological target: PBK (Homo sapiens, UniProt Q96KB5)
Method: as §1, §2, §3, §4

[15] = biological target: PKCθ (Homo sapiens, UniProt Q04759)
Method: as §1, §2, §3

[16] = biological target: TYK2 (Homo sapiens, UniProt P29597)
Method: as §2, §3, §4

[17] = biological target: IKKα (Homo sapiens, UniProt O15111)
Method: as §1, §2, §3, §4

[18] = biological target: MSSK1 (Homo sapiens, UniProt Q9UPE1)
Method: as §1, §2, §3, §4

[19] = biological target: PDGFRα(T674I) (Homo sapiens, UniProt P16234, T674I)
Method: as §1, §2, §3, §4

[20] = biological target: PGK (Homo sapiens, UniProt Q13976)
Method: as §1, §2, §3, §4

[21] = biological target: LOK (Homo sapiens, UniProt O94804)
Method: as §1, §2, §3

[22] = biological target: p38γ (Homo sapiens, UniProt P53778)
Method: as §1, §2, §3

[23] = biological target: RSK1 (Homo sapiens, UniProt Q15418)
Method: as §1, §2, §3

[24] = biological target: IRAK4 (Homo sapiens, UniProt Q9NWZ3)
Method: as §1, §2, §3, §4

[25] = biological target: NEK4 (Homo sapiens, UniProt P51957)
Method: as §1, §2, §3, §4

[26] = biological target: CDK7/CycH/MAT1 (Homo sapiens, UniProt P50613)
Method: as §1, §2, §3, §4

[27] = biological target: FYN (Homo sapiens, UniProt P06241)
Method: as §1, §2, §3, §4

[28] = biological target: JNK3 (Homo sapiens, UniProt P53779)
Method: as §1, §2, §3

[29] = biological target: PKCβ2 (Homo sapiens, UniProt P05771)
Method: as §1, §2, §3

[30] = biological target: p38α (Homo sapiens, UniProt Q16539)
Method: as §1, §2, §3, §4

[31] = biological target: MLK2_Cascade (Homo sapiens, UniProt Q02779)
Method: as §1, §2, §3, §4

[32] = biological target: DLK_Cascade (Homo sapiens, UniProt Q12852)
Method: as §1, §2, §3, §4

[33] = biological target: ALK (Homo sapiens, UniProt Q9UM73)
Method: as §1, §2, §3

[34] = biological target: FES (Homo sapiens, UniProt P07332)
Method: as §1, §2, §3, §4

[35] = biological target: JAK3 (Homo sapiens, UniProt P52333)
Method: as §1, §2, §3, §4

[36] = biological target: p70S6K (Homo sapiens, UniProt P23443)
Method: as §1, §2, §3, §4

[37] = biological target: JAK1 (Homo sapiens, UniProt P23458)
Method: as §1, §2, §3, §4

[38] = biological target: ROS (Homo sapiens, UniProt P08922)
Method: as §1, §2, §3, §4

[39] = biological target: CK1γ1 (Homo sapiens, UniProt Q9HCP0)
Method: as §1, §2, §3, §4

[40] = biological target: IGF1R (Homo sapiens, UniProt P08069)
Method: as §1, §2, §3, §4

[41] = biological target: RET(G691S) (Homo sapiens, UniProt P07949, G691S)
RET(G691S), sequence (P07949 29-1114 G691S): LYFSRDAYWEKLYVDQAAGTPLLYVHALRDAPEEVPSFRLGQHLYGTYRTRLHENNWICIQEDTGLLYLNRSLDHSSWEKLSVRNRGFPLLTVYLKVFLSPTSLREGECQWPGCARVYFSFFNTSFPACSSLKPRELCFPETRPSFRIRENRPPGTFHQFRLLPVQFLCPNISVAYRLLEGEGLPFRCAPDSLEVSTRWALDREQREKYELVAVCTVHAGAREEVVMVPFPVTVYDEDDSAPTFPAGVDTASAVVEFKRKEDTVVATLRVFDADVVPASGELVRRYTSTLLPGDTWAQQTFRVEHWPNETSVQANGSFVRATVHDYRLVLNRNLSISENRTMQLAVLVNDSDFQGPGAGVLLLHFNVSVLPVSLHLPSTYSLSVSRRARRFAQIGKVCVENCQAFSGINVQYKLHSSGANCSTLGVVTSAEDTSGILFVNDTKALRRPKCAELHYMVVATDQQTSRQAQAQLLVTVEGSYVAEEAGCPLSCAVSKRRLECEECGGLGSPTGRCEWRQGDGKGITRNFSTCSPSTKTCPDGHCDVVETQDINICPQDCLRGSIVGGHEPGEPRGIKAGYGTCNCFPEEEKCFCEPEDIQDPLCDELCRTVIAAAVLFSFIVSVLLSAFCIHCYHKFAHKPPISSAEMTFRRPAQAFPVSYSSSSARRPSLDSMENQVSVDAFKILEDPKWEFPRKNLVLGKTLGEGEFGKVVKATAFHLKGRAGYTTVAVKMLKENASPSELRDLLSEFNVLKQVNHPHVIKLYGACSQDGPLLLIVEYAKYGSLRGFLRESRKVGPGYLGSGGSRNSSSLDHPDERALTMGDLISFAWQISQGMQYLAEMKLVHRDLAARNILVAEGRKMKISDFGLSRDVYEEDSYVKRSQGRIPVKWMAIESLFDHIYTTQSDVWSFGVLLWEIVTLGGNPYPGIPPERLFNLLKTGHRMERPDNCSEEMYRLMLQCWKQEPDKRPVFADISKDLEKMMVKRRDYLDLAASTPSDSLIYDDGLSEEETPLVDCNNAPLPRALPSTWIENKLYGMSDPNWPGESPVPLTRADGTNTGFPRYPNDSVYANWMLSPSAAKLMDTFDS
Method: as §1, §2, §3

RSK1, sequence (Q15418 whole entry): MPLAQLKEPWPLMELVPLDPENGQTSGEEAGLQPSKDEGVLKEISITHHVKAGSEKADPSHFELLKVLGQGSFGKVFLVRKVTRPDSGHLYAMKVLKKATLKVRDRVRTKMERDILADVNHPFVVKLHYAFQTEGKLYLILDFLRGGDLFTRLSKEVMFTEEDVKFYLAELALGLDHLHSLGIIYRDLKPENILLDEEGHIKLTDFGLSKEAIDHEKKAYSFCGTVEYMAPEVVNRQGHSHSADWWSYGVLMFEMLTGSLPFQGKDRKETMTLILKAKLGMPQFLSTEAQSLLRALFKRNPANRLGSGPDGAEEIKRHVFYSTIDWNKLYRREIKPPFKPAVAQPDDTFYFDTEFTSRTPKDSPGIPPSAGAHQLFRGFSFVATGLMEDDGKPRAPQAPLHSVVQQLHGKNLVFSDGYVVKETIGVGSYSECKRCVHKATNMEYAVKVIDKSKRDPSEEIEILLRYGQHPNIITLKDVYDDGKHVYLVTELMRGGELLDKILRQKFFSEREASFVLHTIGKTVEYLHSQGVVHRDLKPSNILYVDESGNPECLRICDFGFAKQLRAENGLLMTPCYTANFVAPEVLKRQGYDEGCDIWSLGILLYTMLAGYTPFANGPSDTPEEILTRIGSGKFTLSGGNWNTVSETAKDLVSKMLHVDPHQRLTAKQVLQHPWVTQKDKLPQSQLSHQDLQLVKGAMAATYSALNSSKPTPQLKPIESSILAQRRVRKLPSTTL
FYN, sequence (P06241 whole entry): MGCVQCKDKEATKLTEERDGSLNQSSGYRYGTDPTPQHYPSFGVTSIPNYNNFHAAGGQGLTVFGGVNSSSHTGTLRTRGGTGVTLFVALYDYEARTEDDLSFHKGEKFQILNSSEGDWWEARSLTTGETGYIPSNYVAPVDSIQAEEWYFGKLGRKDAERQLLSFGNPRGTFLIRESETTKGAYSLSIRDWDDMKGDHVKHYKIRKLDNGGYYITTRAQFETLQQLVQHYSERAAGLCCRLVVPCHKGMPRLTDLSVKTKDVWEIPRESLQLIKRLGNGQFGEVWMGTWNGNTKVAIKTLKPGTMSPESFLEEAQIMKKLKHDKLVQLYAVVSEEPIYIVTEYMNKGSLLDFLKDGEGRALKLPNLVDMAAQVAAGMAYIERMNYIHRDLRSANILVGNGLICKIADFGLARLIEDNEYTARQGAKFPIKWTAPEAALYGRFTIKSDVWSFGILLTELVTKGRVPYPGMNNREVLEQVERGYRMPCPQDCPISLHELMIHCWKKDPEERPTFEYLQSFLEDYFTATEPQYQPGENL
DLK_Cascade, sequence (Q12852 whole entry): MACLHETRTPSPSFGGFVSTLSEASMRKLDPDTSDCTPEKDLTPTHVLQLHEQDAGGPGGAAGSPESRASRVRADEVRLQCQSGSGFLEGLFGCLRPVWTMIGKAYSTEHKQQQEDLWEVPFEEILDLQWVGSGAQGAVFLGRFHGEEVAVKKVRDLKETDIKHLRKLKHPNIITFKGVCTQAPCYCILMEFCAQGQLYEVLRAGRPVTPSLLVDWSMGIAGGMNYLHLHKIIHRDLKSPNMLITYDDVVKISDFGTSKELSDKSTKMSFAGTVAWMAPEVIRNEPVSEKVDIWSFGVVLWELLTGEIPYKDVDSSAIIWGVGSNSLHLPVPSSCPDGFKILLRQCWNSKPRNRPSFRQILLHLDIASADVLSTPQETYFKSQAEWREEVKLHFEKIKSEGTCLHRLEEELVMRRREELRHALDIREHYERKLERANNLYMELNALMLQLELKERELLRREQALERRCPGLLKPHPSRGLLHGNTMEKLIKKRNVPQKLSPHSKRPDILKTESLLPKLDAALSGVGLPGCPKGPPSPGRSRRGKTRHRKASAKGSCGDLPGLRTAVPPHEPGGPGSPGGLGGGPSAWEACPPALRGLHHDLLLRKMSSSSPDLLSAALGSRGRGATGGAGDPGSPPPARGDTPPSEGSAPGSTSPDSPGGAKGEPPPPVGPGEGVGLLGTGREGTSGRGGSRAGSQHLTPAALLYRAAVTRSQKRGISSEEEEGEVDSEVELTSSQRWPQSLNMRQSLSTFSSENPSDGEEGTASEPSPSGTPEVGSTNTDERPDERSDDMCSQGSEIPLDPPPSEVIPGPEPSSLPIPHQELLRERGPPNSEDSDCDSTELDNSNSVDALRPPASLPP
NEK1, sequence (Q96PY6 whole entry): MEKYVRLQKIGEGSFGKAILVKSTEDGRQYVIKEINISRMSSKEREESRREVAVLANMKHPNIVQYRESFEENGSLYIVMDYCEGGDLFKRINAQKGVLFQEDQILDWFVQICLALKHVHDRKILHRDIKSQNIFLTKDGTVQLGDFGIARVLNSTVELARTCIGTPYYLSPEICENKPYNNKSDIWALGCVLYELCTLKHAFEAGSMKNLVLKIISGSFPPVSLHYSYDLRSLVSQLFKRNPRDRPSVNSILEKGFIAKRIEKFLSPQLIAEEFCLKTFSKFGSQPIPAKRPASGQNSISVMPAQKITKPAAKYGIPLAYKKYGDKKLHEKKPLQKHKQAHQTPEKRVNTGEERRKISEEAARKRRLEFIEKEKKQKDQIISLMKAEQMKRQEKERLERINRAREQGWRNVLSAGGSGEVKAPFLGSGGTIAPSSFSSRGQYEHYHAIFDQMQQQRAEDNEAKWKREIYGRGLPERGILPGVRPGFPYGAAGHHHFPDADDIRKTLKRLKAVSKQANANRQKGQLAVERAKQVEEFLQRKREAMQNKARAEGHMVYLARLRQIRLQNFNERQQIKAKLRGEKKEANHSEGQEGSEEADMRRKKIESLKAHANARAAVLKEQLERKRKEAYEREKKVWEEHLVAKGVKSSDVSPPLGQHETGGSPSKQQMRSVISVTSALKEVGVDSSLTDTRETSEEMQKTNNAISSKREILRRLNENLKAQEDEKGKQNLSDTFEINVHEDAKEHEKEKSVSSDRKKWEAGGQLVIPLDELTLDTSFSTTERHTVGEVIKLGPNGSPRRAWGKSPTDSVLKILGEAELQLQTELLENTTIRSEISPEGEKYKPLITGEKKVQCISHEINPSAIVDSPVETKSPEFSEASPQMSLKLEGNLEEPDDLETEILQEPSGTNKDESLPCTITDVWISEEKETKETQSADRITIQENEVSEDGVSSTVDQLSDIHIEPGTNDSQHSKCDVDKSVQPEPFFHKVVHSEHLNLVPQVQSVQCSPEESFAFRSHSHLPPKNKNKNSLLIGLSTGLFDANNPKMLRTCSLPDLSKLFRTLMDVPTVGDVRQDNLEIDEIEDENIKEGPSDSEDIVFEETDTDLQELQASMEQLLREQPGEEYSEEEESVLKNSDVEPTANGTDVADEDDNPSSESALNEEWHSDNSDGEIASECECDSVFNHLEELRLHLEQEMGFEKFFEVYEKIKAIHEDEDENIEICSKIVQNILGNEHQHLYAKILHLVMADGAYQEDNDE
p38γ, sequence (P53778 whole entry): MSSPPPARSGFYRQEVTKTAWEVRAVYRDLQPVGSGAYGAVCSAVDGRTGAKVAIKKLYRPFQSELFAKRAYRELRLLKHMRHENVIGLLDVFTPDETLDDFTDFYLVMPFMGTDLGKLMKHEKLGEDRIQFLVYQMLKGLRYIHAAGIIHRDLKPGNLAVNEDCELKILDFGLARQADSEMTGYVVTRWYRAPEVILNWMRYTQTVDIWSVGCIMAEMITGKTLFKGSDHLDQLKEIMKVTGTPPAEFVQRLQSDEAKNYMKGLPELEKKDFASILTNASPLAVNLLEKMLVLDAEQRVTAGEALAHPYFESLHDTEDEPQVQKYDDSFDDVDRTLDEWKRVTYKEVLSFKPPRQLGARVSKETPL

`CC(C)(C)Cc1[nH]nc2c1[C@](C)(c1ccccc1)C1=C(CC(C)(C)CC1=O)N2` [BRD3731] was tested, and the “% Inhibition 10 μM” value ([1]; 10 μM) was −8.8%, the “% Inhibition 10 μM” value ([2]; 10 μM) was 1.9% and the “% Inhibition 10 μM” value ([3]; 10 μM) was −2.1%. For the same compound, the “% Inhibition 10 μM” value ([4]; 10 μM) was −1.8%, the “% Inhibition 10 μM” value ([5]; 10 μM) was 6.7% and the “% Inhibition 10 μM” value ([6]; 10 μM) was 17.1%. For the same compound, the “% Inhibition 10 μM” value ([7]; 10 μM) was 0.0%, the “% Inhibition 10 μM” value ([8]; 10 μM) was 0.0% and the “% Inhibition 10 μM” value ([9]; 10 μM) was 2.3%. For the same compound, the “% Inhibition 10 μM” value ([10]; 10 μM) was −4.0%, the “% Inhibition 10 μM” value ([11]; 10 μM) was 2.1% and the “% Inhibition 10 μM” value ([12]; 10 μM) was −0.2%. For the same compound, the “% Inhibition 10 μM” value ([13]; 10 μM) was −0.1%, the “% Inhibition 10 μM” value ([14]; 10 μM) was 0.6% and the “% Inhibition 10 μM” value ([15]; 10 μM) was 12.1%. For the same compound, the “% Inhibition 10 μM” value ([16]; 10 μM) was 4.6%, the “% Inhibition 10 μM” value ([17]; 10 μM) was 1.8% and the “% Inhibition 10 μM” value ([18]; 10 μM) was 2.8%. For the same compound, the “% Inhibition 10 μM” value ([19]; 10 μM) was 3.1%, the “% Inhibition 10 μM” value ([20]; 10 μM) was 1.9% and the “% Inhibition 10 μM” value ([21]; 10 μM) was −1.0%. The “% Inhibition 10 μM” value ([22]; 10 μM) was −2.6%, the “% Inhibition 10 μM” value ([23]; 10 μM) was 23.4% and the “% Inhibition 10 μM” value ([24]; 10 μM) was 0.1%. The “% Inhibition 10 μM” value ([25]; 10 μM) was −4.8%, the “% Inhibition 10 μM” value ([26]; 10 μM) was 21.3% and the “% Inhibition 10 μM” value ([27]; 10 μM) was −1.3%. The “% Inhibition 10 μM” value ([28]; 10 μM) was −2.6%, the “% Inhibition 10 μM” value ([29]; 10 μM) was 3.8% and the “% Inhibition 10 μM” value ([30]; 10 μM) was 0.9%. For the same compound, the “% Inhibition 10 μM” value ([31]; 10 μM) was 0.3%, the “% Inhibition 10 μM” value ([32]; 10 μM) was 0.9% and the “% Inhibition 10 μM” value ([33]; 10 μM) was 3.0%. For the same compound, the “% Inhibition 10 μM” value ([34]; 10 μM) was 0.4%, the “% Inhibition 10 μM” value ([35]; 10 μM) was 7.8% and the “% Inhibition 10 μM” value ([36]; 10 μM) was 12.5%. The “% Inhibition 10 μM” value ([37]; 10 μM) was 3.7%, the “% Inhibition 10 μM” value ([38]; 10 μM) was 0.9% and the “% Inhibition 10 μM” value ([39]; 10 μM) was 1.2%. For the same compound, the “% Inhibition 10 μM” value ([40]; 10 μM) was −1.5% and the “% Inhibition 10 μM” value ([41]; 10 μM) was −2.3%.
For `CC[C@@]1(c2ccccc2)C2=C(CC(C)(C)CC2=O)Nc2n[nH]cc21` [BRD0705], the “% Inhibition at 10 μM” value [1] was 6.7%, the “% Inhibition at 10 μM” value [2] was 0.7% and the “% Inhibition at 10 μM” value [3] was −2.1%. The “% Inhibition at 10 μM” value [4] was −10.7%, the “% Inhibition at 10 μM” value [5] was 0.3% and the “% Inhibition at 10 μM” value [6] was 3.4%. The “% Inhibition at 10 μM” value [7] was 6.4%, the “% Inhibition at 10 μM” value [8] was −5.7% and the “% Inhibition at 10 μM” value [9] was −2.7%. The “% Inhibition at 10 μM” value [10] was −4.9%, the “% Inhibition at 10 μM” value [11] was −2.3% and the “% Inhibition at 10 μM” value [12] was 2.4%. For the same compound, the “% Inhibition at 10 μM” value [13] was −9.6%, the “% Inhibition at 10 μM” value [14] was −8.0% and the “% Inhibition at 10 μM” value [15] was −12.0%. The “% Inhibition at 10 μM” value [16] was −2.2%, the “% Inhibition at 10 μM” value [17] was −0.2% and the “% Inhibition at 10 μM” value [18] was −1.6%. For the same compound, the “% Inhibition at 10 μM” value [19] was 0.5%, the “% Inhibition at 10 μM” value [20] was −2.1% and the “% Inhibition at 10 μM” value [21] was 9.6%. The “% Inhibition at 10 μM” value [22] was −3.4%, the “% Inhibition at 10 μM” value [23] was −6.4% and the “% Inhibition at 10 μM” value [24] was −7.4%. For the same compound, the “% Inhibition at 10 μM” value [25] was −5.1%, the “% Inhibition at 10 μM” value [26] was 8.3% and the “% Inhibition at 10 μM” value [27] was 3.1%. The “% Inhibition at 10 μM” value [28] was −3.4%, the “% Inhibition at 10 μM” value [29] was −5.7% and the “% Inhibition at 10 μM” value [30] was −8.5%. The “% Inhibition at 10 μM” value [31] was 2.1%, the “% Inhibition at 10 μM” value [32] was −1.1% and the “% Inhibition at 10 μM” value [33] was 1.1%. The “% Inhibition at 10 μM” value [34] was 0.6%, the “% Inhibition at 10 μM” value [35] was 4.1% and the “% Inhibition at 10 μM” value [36] was −7.8%. The “% Inhibition at 10 μM” value [37] was −1.3%, the “% Inhibition at 10 μM” value [38] was 31.3% and the “% Inhibition at 10 μM” value [39] was −3.4%. For the same compound, the “% Inhibition at 10 μM” value [40] was −2.5% and the “% Inhibition at 10 μM” value [41] was −5.6%.
